Test results taken from US20070042037A1, “Pharmaceutical composition containing levodopa and carbidopa” (priority 2003, published 2007).

Key:
[1] = Dissolution test, continuous-flow dissolution chamber, in vitro release; format: physicochemical; conditions: pH 1.1 artificial gastric juice, 25 ml/min, 37° C., mean of 6 measurements
Method: Six samples of a 250 mg preparation (50+200) were tested using a solution at pH 1.1 (artificial gastric juice) in a continuous-flow dissolution chamber (25 ml/min, 37° C.). The following percentages of release during the 24 hours were obtained (each value is the mean of 6 measurements): […]

[2] = in vivo; cited from earlier work
[3] = 3rd hour, 250 mg preparation (50 mg carbidopa+200 mg levodopa, ethylcellulose-coated granules)
[4] = 6th hour, 250 mg preparation (50+200)
[5] = 9th hour, 250 mg preparation (50+200)
[6] = 12th hour, 250 mg preparation (50+200)
[7] = 24th hour, 250 mg preparation (50+200)

Row | In vitro release, % released average [1, 3] [%] | In vitro release, % released average [1, 4] [%] | In vitro release, % released average [1, 5] [%] | In vitro release, % released average [1, 6] [%] | In vitro release, % released average [1, 7] [%] | Compound | Time to attain the maximum plasmatic concentration [2] [h]
1 | 26 | 39 | 51 | 63 | 89 | C[C@@](Cc1ccc(O)c(O)c1)(NN)C(=O)O [Carbidopa, carbidopa] | –
2 | 22 | 43 | 59 | 68 | 90 | N[C@@H](Cc1ccc(O)c(O)c1)C(=O)O [Levodopa, levodopa] | 1 to 2
